Columns and labels:
CIA mice [1] = assay: Edema of paws and joints / paw thickness in CIA mice; assay type: in vivo
Method: In the present invention, “CIA” is used for an animal model suffering from rheumatoid arthritis and means “collagen-induced arthritis.”
(§1) In the examples of the present invention, efficacies of the composition of the present invention were investigated by establishing animal models CIA or SIA with animal diseases similar to rheumatoid arthritis of the human body. Specifically, 100 μl of 250 μg or 500 μg of the compound YKL-05-099 (CAS No.: 1936529-65-5) shown in FIG. 1 was intraperitoneally (i.p.) administered to a mouse weighed 25 g (that is, 10 mg or 20 mg per 1 kg) once a day.
(§2) After i.p. administration of YKL-05-099 in an amount of 10 mg/kg or 20 mg/kg to mice having rheumatoid arthritis once a day, improvement of edema in the paws was investigated. For definite measurement and comparison, the most swollen portion of the paw was measured in multiple times, and collected numerical values of paw thickness were recorded and compared. Disease-free mice without administration of antigens were used as a negative control.
(§3) FIG. 4 illustrates measured results of the paw thickness of CIA mice while FIG. 5 illustrates measured results of the paw thickness of SIA mice, respectively.

CIA mice [2] = assay: Rheumatoid arthritis clinical score in CIA mice; assay type: in vivo; settings: 10 mg/kg or 20 mg/kg, score 0-4 per paw, four paws combined, FIG. 6
Method: as §1
(§4) With regard to rheumatoid arthritis animal models CIA and SIA, respectively, rheumatoid arthritis clinical score was investigated. Disease-free mice without administration of antigen were used as a negative control. The clinical scores were determined depending on significance as follows: 0 (no symptom); 1 (slight edema on the soles or toes); 2 (significant edema throughout the soles and toes); 3 (significant to serious edema throughout the paw); 4 (serious edema and distortion throughout the paw), and then, the results for four paws were combined. FIG. 6 illustrates the results for CIA mice, and FIG. 7 illustrates the results for SIA mice, respectively.

CD4+ Foxp3+ cells (Treg) = assay: Treg cell level in spleen cells of CIA mice by flow cytometry; assay type: in vivo; settings: for ratio of CD4+ Foxp3+ cells as a marker for Treg: spleen live cells, CIA+Veh 12.24±0.34%, sham 10.725±0.53%
Method: After i.p. administration of YKL-05-099 in an amount of 10 mg/kg or 20 mg/kg to the rheumatoid arthritis model CIA mice once a day, spleen cells were isolated at a time of sacrificing the mice to investigate Treg cell levels. Immune cell assay was performed through flow cytometry, and the experiment was implemented according to product instructions of Invitrogen Co. Specifically, the spleen cells were isolated to prepare 1×10^6 cells/100 μl of single cells, followed by staining live/dead cells using fixable viability dye (Invitrogen, eFluor™780, 65-0865-14), and then blocking the same using anti-CD16/32 (Invitrogen, 14-0161). Following this, the above product was stained using anti-CD4 (Invitrogen, RM4-5, mice) and anti-Foxp3 (Invitrogen, FJK-16s, mice). The stained cells were subjected to measurement of a ratio of CD4^+ Foxp3^+ cells as a marker for Treg in live cells isolated through flow cytometry.
FIGS. 12A and 12B illustrate the above measured results. From the results of measuring a ratio of CD4^+ Foxp3^+ cells as a marker for Treg, it was confirmed that sham (disease-free mice) is 10.725±0.53%, CIA+Veh is 12.24±0.34%, CIA+YKL-05-099 10 mg/kg is 14.2±1.28%, CIA+YKL-05-099 20 mg/kg is 14.98±1.16%, respectively. Using unpaid parametric Welch's corrected t-test (two-tailed), p-value was indicated. With regard to statistically significant levels, p-value is 0.05 or less, wherein significance was represented by *p<0.05, **p<0.01 and ***p<0.001. Sham vs CIA+Veh p-value is 0.0045, CIA+YKL-05-099 10 mg/kg vs CIA+Veh p-value is 0.0119, CIA+YKL-05-099 20 mg/kg vs CIA+Veh p-value is 0.0046, CIA+YKL-05-099 10 mg/kg vs sham p-value is 0.0005, and CIA_YKL-05-099 20 mg/kg vs sham p-value is 0.0004.

SIA mice [3] = assay: Rheumatoid arthritis clinical score in SIA mice; assay type: in vivo; settings: 10 mg/kg or 20 mg/kg, score 0-4 per paw, four paws combined, FIG. 7
Method: as §1, §4

CIA mice [4] = assay: Bone loss around paw joint (micro CT) in CIA mice; assay type: in vivo; settings: bone amount in the paw joint, FIG. 9
Method: FIG. 9 is photographs taken through micro CT and graphs showing effects of inhibiting reduction of bone loss around the joints in the embodiments of the present invention.
as §1

SIA mice [5] = assay: Edema of paws and joints / paw thickness in SIA mice; assay type: in vivo
Method: In the present invention, “SIA” is used for an animal model suffering from rheumatoid arthritis and means “serum transfer arthritis.”
as §1, §2, §3

[6] = test system: CD11b+ F4/80+ cells (macrophage cells); assay: Macrophage cell level in spleen cells of CIA mice by flow cytometry; assay type: in vivo; settings: for ratio of CD11b+ F4/80+ cells as a marker for macrophage cells: spleen live cells, CIA+Veh 1.854±0.41%, sham 0.355±0.08%
Method: In order to confirm mitigation effects of increase in immune active macrophage cells in the spleen, after i.p. administration of YKL-05-099 in an amount of 10 mg/kg or 20 mg/kg to the rheumatoid arthritis model CIA mice once a day, spleen cells were isolated at a time of sacrificing the mice to investigate macrophage cell levels. FIGS. 13A and 13B illustrate the above results of investigating macrophage cell levels. Immune cell assay was performed through flow cytometry, and the experiment was implemented according to product instructions of Invitrogen Co.
Specifically, the spleen cells were isolated to prepare 1×10^6 cells/100 μl of single cells, followed by staining live/dead cells using fixable viability dye (Invitrogen, eFluor™780, 65-0865-14), and then blocking the same using anti-CD16/32 (Invitrogen, 14-0161). Following this, the above product was stained using anti-CD11b (Invitrogen, M1/70) and anti-F4/80 (Invitrogen, BM8). The stained cells were subjected to measurement of a ratio of CD11b^+ F4/80^+ cells as a marker for macrophage cells in live cells isolated through flow cytometry.
From the result of measuring a ratio of CD11b^+ F4/80^+ cells as a marker for macrophage cells, it was confirmed that sham is 0.355±0.08%, CIA+Veh is 1.854±0.41%, CIA+YKL-05-099 10 mg/kg is 1.043±0.30%, CIA+YKL-05-099 20 mg/kg is 0.975±0.12%, respectively. Using unpaid parametric Welch's corrected t-test (two-tailed), p-value was indicated. With regard to statistically significant levels, p-value is 0.05 or less, wherein significance was represented by *p<0.05, **p<0.01 and ***p<0.001. CIA+Veh vs sham p-value is 0.0009, CIA+YKL-05-099 20 mg/kg vs CIA+Veh p-value is 0.0057, CIA+YKL-05-099 10 mg/kg vs sham p-value is 0.0019, CIA+YKL-05-099 20 mg/kg vs sham p-value is 0.0002, and CIA+YKL-05-099 10 mg/kg vs CIA+Veh p-value is 0.0076.

[7] = test system: TNF-α, IL-6, IFN-γ, IL-17a; assay: Inflammatory cytokines in peripheral blood by ELISA, CIA mice; assay type: in vivo; settings: ELISA at time of sacrifice, FIG. 10
Method: as §1
(§5) After administering YKL-05-099 to the rheumatoid arthritis animal model, essential inflammatory cytokines to induce rheumatoid arthritis such as TNF-α and IL-6, the representative immunoreactive cytokine of TH1 such as IFN-γ, and the representative immunoreactive cytokine of TH17 such as 1L-17a within peripheral blood at a time of sacrificing the mouse were subjected to analysis through enzyme linked immunosorbent assay (ELISA). Specifically, cytokine analysis was implemented using ELISA kit products according to instructions of Invitrogen Co., wherein the used product serial numbers are anti-IFN-γ (88-7314), anti-TNF-α (88-7324), anti-IL-17a (88-7371) and anti-IL-6 (88-7064). Disease-free mice without administration of antigens were used as a negative control. […] FIG. 10 illustrates measured results of cytokines in CIA mice while FIG. 11 illustrates measured results of cytokines in SIA mice, respectively.

[8] = test system: spleen and the lymph nodes; assay: Expansion of spleen and lymph tissues (inguinal and mesenteric lymph nodes); assay type: in vivo, mice; settings: compared to the control, FIG. 8
Method: as §1, with “day. […] Disease-free mice without administration of antigens were used as a negative control, and the compared results are shown in FIG. 8.” for “day.”

[9] = test system: TNF-α, IL-6, IFN-γ, IL-17a; assay: Inflammatory cytokines in peripheral blood by ELISA, SIA mice; assay type: in vivo; settings: ELISA at time of sacrifice, FIG. 11
Method: as §1, §5

## COc1ccc(N2C(=O)N(c3c(C)cccc3Cl)Cc3cnc(Nc4ccc(C5CCN(C)CC5)cc4OC)nc32)nc1 [YKL-05-099]
CIA mice [1]; 10 mg/kg or 20 mg/kg i.p. once a day, compared to the control, FIG. 2
  edema of the paws and around the joints (visually observed): remarkably improved
CIA mice [1]; vs vehicle administered group, FIG. 4
  paw thickness: remarkably thinner
CIA mice [2]
  rheumatoid arthritis clinical scores: significantly reduced
CD4+ Foxp3+ cells (Treg); 10 mg/kg and 20 mg/kg
  ratio of Treg cells compared to CIA+Veh: statistically significant increase
CD4+ Foxp3+ cells (Treg); 10 mg/kg i.p. once a day, p vs Veh 0.0119
  ratio of CD4+ Foxp3+ cells as a marker for Treg: 14.2±1.28%
CD4+ Foxp3+ cells (Treg); 20 mg/kg i.p. once a day, p vs Veh 0.0046
  ratio of CD4+ Foxp3+ cells as a marker for Treg: 14.98±1.16%
SIA mice [3]
  rheumatoid arthritis clinical scores: significantly reduced
CIA mice [4]
  bone loss in paw joint: significantly inhibited
SIA mice [5]; 10 mg/kg or 20 mg/kg i.p. once a day, compared to the control, FIG. 3
  edema of the paws and around the joints (visually observed): remarkably improved
SIA mice [5]; vs vehicle administered group, FIG. 5
  paw thickness: remarkably thinner
[6]; 10 mg/kg and 20 mg/kg
  ratio of macrophage cells compared to CIA+Veh: statistically significant decrease
[6]; 10 mg/kg i.p. once a day, p vs Veh 0.0076
  ratio of CD11b+ F4/80+ cells as a marker for macrophage cells: 1.043±0.30%
[6]; 20 mg/kg i.p. once a day, p vs Veh 0.0057
  ratio of CD11b+ F4/80+ cells as a marker for macrophage cells: 0.975±0.12%
[7]
  inflammatory cytokines (TNF-α, IL-6, IFN-γ, IL-17a) within peripheral blood: greatly suppressed
[8]
  expansion of the spleen and the lymph nodes: greatly suppressed
[9]
  inflammatory cytokines (TNF-α, IL-6, IFN-γ, IL-17a) within peripheral blood: greatly suppressed

From US12642801B2, “Pharmaceutical composition for preventing or treating rheumatoid arthritis and health functional food” (SEOUL NATIONAL UNIVERSITY R&DB FOUNDATION, priority 2021, dated 2026)
